# Assay results published in patent US5705190A, “Controlled release formulation for poorly soluble basic drugs” (Abbott Laboratories, priority 1995, dated 1998).
# Read-outs that look alike come from different tables or passages of the source.
# Tests used:
# [1] = cited from earlier work
# [2] = in vivo
Compound,water solubility (1 part of drug in the number of parts of water) ([1]; water),other results
CC1Cc2ccccc2N1NC(=O)c1ccc(Cl)c(S(N)(=O)=O)c1 (stereo not drawn) [indapamide],"more than 10,000 parts of water",
CC[C@H]1OC(=O)[C@H](C)[C@@H](O[C@H]2C[C@@](C)(OC)[C@@H](O)[C@H](C)O2)[C@H](C)[C@@H](O[C@@H]2O[C@H](C)C[C@H](N(C)C)[C@H]2O)[C@](C)(O)C[C@@H](C)C(=O)[C@H](C)[C@@H](O)[C@]1(C)O [erythromycin],"1,000 parts of water",reproducibly bioavailable controlled release formulations [2]: not possible
CO[C@@H]1[C@@H](O[C@@H]2O[C@H](C)[C@@H](O[C@H]3C[C@@](C)(O)[C@@H](OC(=O)CC(C)C)[C@H](C)O3)[C@H](N(C)C)[C@H]2O)[C@@H](CC=O)C[C@@H](C)[C@@H](O)/C=C/C=C/C[C@@H](C)OC(=O)C[C@H]1OC(C)=O [josamycin],"1,000-10,000 parts of water",
kitasamycin,"1,000-10,000 parts of water",
Cc1ncc([N+](=O)[O-])n1CCO [metronidazole],"100-1,000 parts of water",
CC[C@H]1OC(=O)C[C@@H](O)[C@H](C)[C@@H](O[C@@H]2O[C@H](C)[C@@H](O[C@H]3C[C@@](C)(O)[C@@H](O)[C@H](C)O3)[C@H](N(C)C)[C@H]2O)[C@@H](CC=O)C[C@@H](C)C(=O)/C=C/C(C)=C/[C@@H]1CO[C@@H]1O[C@H](C)[C@@H](O)[C@@H](OC)[C@H]1OC [tylosin],"100-1,000 parts of water",
CCC(=O)O[C@@H]1CC(=O)O[C@H](C)C/C=C/C=C/[C@H](O)[C@H](C)C[C@H](CC=O)[C@H](O[C@@H]2O[C@H](C)[C@@H](O[C@H]3C[C@@](C)(O)[C@@H](OC(=O)CC)[C@H](C)O3)[C@H](N(C)C)[C@H]2O)[C@H]1OC [midecamycin],,water solubility in words ([1]; water): very slightly soluble in water
CC[C@H]1OC(=O)[C@H](C)[C@@H](O[C@H]2C[C@@](C)(OC)[C@@H](O)[C@H](C)O2)[C@H](C)[C@@H](O[C@@H]2O[C@H](C)C[C@H](N(C)C)[C@H]2O)[C@](C)(OC)C[C@@H](C)C(=O)[C@H](C)[C@@H](O)[C@]1(C)O [clarithromycin],,"water solubility (1 part of drug in the number of parts of water) ([1]; 1 part drug in x parts water, a higher number is a lower solubility): ~1,000 parts of water; solubility in the stomach ([1]; pH 1.2): very soluble; solubility in the upper region of the small intestine ([1]; pH 5.0): fairly soluble; solubility in the lower intestine ([1]; pH 6 to 8): solubility decreases"
